Measured values published in patent US20220142955A1, “METHODS OF TREATING ORGANIC ACIDEMIAS” (HemoShear Therapeutics, Inc., priority 2019, published 2022).
Like-named read-outs stand apart in the source and are kept apart here.

Tests used:
[1] = tested on: primary hepatocytes of propionic acidemia patients; test: Reduction of propionyl-CoA with compounds 8 and 9 (Example 9); type: cell-based, human; conditions: PA hepatocytes; 13C-isoleucine (3 mM)
Protocol: (§1) Primary hepatocytes isolated from livers of propionic acidemia patients are treated with increasing doses of compound 1 (0, 0.1, 0.3, 1, 3, 10, 30, 100 μM) for 30 minutes. After 30 minutes, the cells are challenged with ^13C-isoleucine (3 mM) for 60 minutes. At the end of the challenge period, media is removed and the cells are lysed with 70% MeCN and 0.1% TFA containing 100 μM of ethymalonyl-CoA as an internal standard and harvested. Cell lysates are processed for HTMS/MS analysis.

[2] = tested on: primary hepatocytes of propionic acidemia patients; test: Reduction of 13C-propionyl-CoA and accumulation of compound-CoA ester after 13C-isoleucine challenge (Example 1); type: cell-based; conditions: Homo sapiens, Hepatocyte, 13C-labeled isoleucine, compound 0 μM to 1,000 μM
Protocol: Primary hepatocytes are isolated from explanted livers of propionic acidemia patients and are cultured on day 1 using standard protocols (see: Chapman et al. “Recapitulation of metabolic defects in a model of propionic acidemia using patient-derived primary hepatocytes” Mol. Genet. Metab. 2016, 117(3), 355-362). Approximately 2×10^5 hepatocytes are plated into each well of a collagen-coated 48-well tissue culture plate and pre-conditioned in a custom Modified Corning culture media for Hepatocells (Corning) without low levels of branched chain amino acids for 72 hours. On day 4, hepatocytes are treated with increasing doses of compound (0, 1, 3, 10, 30, 100, 300, 1000 μM) for 30 min. After 30 min the cells are challenged with ^13C-isoleucine (3 mM). At the end of the challenge period, cells are lysed in 100 μL of […] acetonitrile (MeCN) and 0.1% trifluoroacetic acid (TFA) containing 100 μM of ethymalonyl-CoA as an internal standard. Cells are removed from the well by scraping into the lysis buffer. The collected cellular samples are then dispensed into a microfuge tube. The plate wells are washed again with lysis buffer to ensure the remaining cells are dislocated from the well. All remaining collected cells are then moved into the centrifuge tube. The cellular samples are flash frozen in liquid nitrogen and stored at −80° C. To begin processing, the frozen cellular lysates are thawed on ice and vortexed. The samples are centrifuged at 20,000 g for 10 min at 4° C. and the total volume of supernatant is transferred to a no-bind 96-well plate on ice. The samples are dried under vacuum for about 2 hours and then resuspended in 150 μL of water in each well. Total volumes of samples are filtered through a prepared Durapore filter plate into a no-bind 96-well plate. The filtered samples are stored at −80° C. for HTMS/MS analysis.

[3] = tested on: primary hepatocytes of propionic acidemia patients; test: Propionyl-CoA from various sources in PA primary hepatocytes (Examples 2, 3); type: cell-based, human; conditions: for EC50: Homo sapiens, Hepatocyte, read-out: concentration of propionyl-CoA EC50
Protocol: as §1, with “(0,” for “(0, 0.1, 0.3,”, “30, 100, 300, 1000” for “30, 100”, “30 min.” for “30 minutes.”, “30 min” for “30 minutes,”, “with the different sources of P-CoA, which may include ^13C-ketoisovaleric acid (KIVA) (1 mM), […] (ILE)” for “with ^13C-isoleucine”, “(3 mM), ^13C-threonine (THR) (5 mM), ^13C-methionine (MET) (5 mM), ^13C-heptanoate (100 μM), or ^13C-propionate (5” for “(3”
Primary hepatocytes isolated from livers of propionic acidemia patients are treated with increasing doses of compound 5 (0, 0.1, 0.3, 1, 3, 10, 30, 100 μM) for 30 minutes. After 30 minutes the cells are challenged with the different sources of P-CoA, which may include ^13C-KIVA (1 mM), ^13C-isoleucine (3 mM), ^13C-threonine (5 mM), ^13C-methionine (5 mM), ^13C-heptanoate (100 μM), or ^13C-propionate (5 mM) for 60 minutes. At the end of the challenge period, media is removed and the cells are lysed with 70% MeCN and 0.1% TFA containing 100 μM of ethymalonyl-CoA as an internal standard and harvested. Cell lysates are processed for HTMS/MS analysis.

[4] = tested on: primary hepatocytes of methylmalonic acidemia patients; test: Propionyl-CoA and methylmalonyl-CoA from various sources in MMA primary hepatocytes (Examples 4, 5); type: cell-based, human; conditions: for EC50: Homo sapiens, Hepatocyte
Protocol: (§2) Primary hepatocytes isolated from livers of methylmalonic acidemia patients are treated with increasing doses of compound 1 (0, 1, 3, 10, 30, 100, 300, 1000 μM) for 30 minutes. […] At the end of the challenge period, media is removed and the cells are lysed with 70% MCCN and 0.1% TFA containing 100 μM of ethymalonyl-CoA as an internal standard and harvested. Cell lysates are processed for HTMS/MS analysis.
as §2, with “compound 5” for “compound 1”, “(0, 0.1, 0.3,” for “(0,”, “30, 100” for “30, 100, 300, 1000”, “30 min.” for “30 minutes.”, “70% MeCN” for “70% MCCN”

[5] = tested on: primary hepatocytes of propionic acidemia patients; test: Propionyl-carnitine (C3) in PA primary hepatocytes (Example 6); type: cell-based, human; conditions: for EC50: Homo sapiens, Hepatocyte, read-out: concentration of propionyl-carnitine EC50
Protocol: Primary hepatocytes isolated from livers of propionic acidemia patients are treated with increasing doses of compound 1 (0, 1, 3, 10, 30, 100, 300, 1000 μM) for 30 min. After 30 min the cells are challenged with ^13C-KIVA (1 mM) and ^13C-isoleucine (3 mM) for 60 minutes. At the end of the challenge period, media is removed and the cells are washed with ice cold PBS. Cells are lysed with 70% MeCN containing 4 nM of hexanoyl-carnitine as an internal standard (lysis buffer), harvested and processed for HTMS/MS analysis.

[6] = read-out: concentration of 12C-Compound-CoA ester EC50
[7] = read-out: concentration of 13C-propionyl-CoA EC50

CCCC(C)(C)C(=O)O [Compound 9, 2,2-dimethylpentanoic acid]
intracellular propionyl-CoA [1]: dose-dependent reduction

CC(C)(C)C(=O)O [Compound 8, 2,2,dimethylpropionic acid]
intracellular propionyl-CoA [1]: dose-dependent reduction

CCC(CC)C(=O)O [Compound 4, 2-ethylbutanoic acid]
EC50 [2, 6]: 10.3 µM
EC50 [2, 7]: 32.4 µM

CCCC(C)C(=O)O (centres unmarked) [Compound 3, 2-methylpentanoic acid]
EC50 [2, 6]: 27.4 µM
EC50 [2, 7]: 13 µM

CCCC(CCC)C(=O)O [Compound 1, 2-propylpentanoic acid (valproic acid)]
EC50 [2, 6]: 12.5 µM
EC50 [2, 7]: 12.4 µM
intracellular propionyl-CoA from all sources investigated [3]: dose-dependent reduction
EC50 ([3]; 100 μM 13C-heptanoate): 48.2 µM
EC50 ([3]; 1 mM 13C-KIVA): 14.2 µM
EC50 ([3]; 3 mM 13C-ILE): 15 µM
EC50 ([3]; 5 mM 13C-MET): 7.14 µM
EC50 ([3]; 5 mM 13C-THR): 9.2 µM
EC50 ([3]; 5 mM 13C-propionate): 21.2 µM
intracellular propionyl-CoA and methylmalonyl-CoA from all sources investigated [4]: dose-dependent reduction
EC50 ([4]; 100 μM 13C-propionate, read-out: concentration of methylmalonyl-CoA EC50): 89.4 µM
EC50 ([4]; 100 μM 13C-propionate, read-out: concentration of propionyl-CoA EC50): 68.2 µM
EC50 ([4]; 1 mM 13C-KIVA, read-out: concentration of methylmalonyl-CoA EC50): 31.3 µM
EC50 ([4]; 1 mM 13C-KIVA, read-out: concentration of propionyl-CoA EC50): 30.9 µM
EC50 ([4]; 3 mM 13C-ILE, read-out: concentration of methylmalonyl-CoA EC50): 25.5 µM
EC50 ([4]; 3 mM 13C-ILE, read-out: concentration of propionyl-CoA EC50): 30.8 µM
EC50 ([4]; 5 mM 13C-MET, read-out: concentration of methylmalonyl-CoA EC50): 47.3 µM
EC50 ([4]; 5 mM 13C-MET, read-out: concentration of propionyl-CoA EC50): 50.7 µM
EC50 ([4]; 5 mM 13C-THR, read-out: concentration of methylmalonyl-CoA EC50): 25.6 µM
EC50 ([4]; 5 mM 13C-THR, read-out: concentration of propionyl-CoA EC50): 13.9 µM
intracellular propionyl-carnitine (C3) from 13C-KIVA or 13C-isoleucine [5]: dose-dependent reduction
EC50 ([5]; 1 mM 13C-KIVA): 44.3 µM
EC50 ([5]; 3 mM 13C-ILE): 54.3 µM

CC1(CC(=O)O)CC1 [Compound 7, 2-(1-methylcyclopropyl) acetic acid]
EC50 [2, 6]: 10.2 µM
EC50 [2, 7]: 28.8 µM

CCCC(CC)C(=O)O (centres unmarked) [Compound 2, 2-ethylpentanoic acid]
EC50 [2, 6]: 1.24 µM
EC50 [2, 7]: 1.23 µM

CC(C)(C)CC(=O)O [Compound 6, 3,3-dimethylbutanoic acid]
EC50 [2, 6]: 0.48 µM
EC50 [2, 7]: 0.91 µM
